The values that follow come from patent US20150239831A1, “INHIBITORS OF CENTRAL NERVOUS SYSTEM VASOACTIVE INHIBITORY PEPTIDE RECEPTOR 2” (The Trustees Of Columbia University In The City Of New York, priority 2012, published 2015).

The IC50 is the concentration needed to halve the response being measured.

One test addresses T1, VPAC1 (Homo sapiens, UniProt P32241).
T1 sequence (P32241 31-457): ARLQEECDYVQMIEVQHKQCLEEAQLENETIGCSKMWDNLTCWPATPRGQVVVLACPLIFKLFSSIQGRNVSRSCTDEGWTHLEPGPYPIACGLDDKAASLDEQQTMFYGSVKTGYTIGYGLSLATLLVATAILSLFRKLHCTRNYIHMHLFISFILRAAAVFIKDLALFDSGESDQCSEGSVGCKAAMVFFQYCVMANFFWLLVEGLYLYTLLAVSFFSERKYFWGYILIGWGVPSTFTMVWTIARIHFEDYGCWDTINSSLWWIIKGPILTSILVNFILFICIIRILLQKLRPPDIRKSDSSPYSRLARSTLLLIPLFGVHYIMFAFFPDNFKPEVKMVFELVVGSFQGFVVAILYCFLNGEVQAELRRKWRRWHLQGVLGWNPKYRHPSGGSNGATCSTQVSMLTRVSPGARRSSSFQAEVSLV
Conditions: Chu et al., 2010; cited from earlier work.

The target in test [1] is T2, VIPR2 (Homo sapiens, UniProt P41587).
T2 sequence (P41587 24-438): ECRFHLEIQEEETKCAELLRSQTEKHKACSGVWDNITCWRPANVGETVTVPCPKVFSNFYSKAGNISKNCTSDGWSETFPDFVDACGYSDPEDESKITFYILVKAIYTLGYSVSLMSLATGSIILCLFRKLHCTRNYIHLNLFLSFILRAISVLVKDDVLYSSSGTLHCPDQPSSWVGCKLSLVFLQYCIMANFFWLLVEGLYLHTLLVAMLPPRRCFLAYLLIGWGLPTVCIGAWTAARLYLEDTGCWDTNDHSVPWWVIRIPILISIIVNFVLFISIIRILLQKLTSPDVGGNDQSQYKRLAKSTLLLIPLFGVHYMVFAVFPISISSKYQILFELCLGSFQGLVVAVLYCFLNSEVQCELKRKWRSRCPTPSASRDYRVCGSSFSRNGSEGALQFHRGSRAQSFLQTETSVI
In words: BRET-based VIPR2 activation assay (CAMYEL cAMP sensor, CHO cells, VIP background). The format is cell-based. From the text: In such a system, a detector cell is used which expresses both the VIPR2 receptor and “CAMYEL,” a YFP-Epac-RLuc8 BRET sensor construct. This construct includes Epac1, a guanine nucleotide exchange factor activated by direct binding of cAMP, fused with an enhanced YFP and Renilla luciferase 8 (Rluc8) allowing BRET upon cAMP-induced conformational changes (Jiang et al., 2007, J Biol Chem. 282:10576-10584). In response to elevated cAMP levels, there is a conformational change in Epac and therefore a change in the proximity of the fused chromophores, Rluc8 and YFP, resulting in measurable energy transfer. Coexpression of this BRET construct with VIPR2, optionally tagged at the N-terminus with a signal peptide and FLAG epitope (SF-VIPR2), for example in HEK293 cells, allows for detection of a VIPR2-specific response to cAMP. BRET readout may be calculated by quantifying the ratio of the light emitted by the acceptor, YFP (λ=525 nm), over the emission from the donor, RLuc8 (λ=485 nm). The proximity of the donor and acceptor, and therefore the BRET ratio, decreases in the presence of cAMP. In non-limiting specific embodiments, a stable cell line may be generated for this assay using the Flp-In T-Rex system in HEK293 cells. This system allows site-specific single copy integration of the gene of interest and control of expression levels using the Tet-repressor site making receptor expression tetracycline-inducible. For example, a CAMYEL and VIPR2 expressing line may be induced with 0.01 μg/ml tetracycline, then, 24 hours later cells may be collected and distributed into 96-well plates. After treatment with candidate inhibitor compound, for example at 5, 1 and 0.5 μM concentrations, cells may be incubated with the light emitting luciferin, coelenterazine H, for 5 min and incubated for 5 min with VIP at increasing concentrations, for example ranging from […] to 10 μM. The fluorescence and luminescence may then be quantified, for example using a PHERAstar (BMG) plate reader. […] Alternatively, analogous experiments may be performed using human cells harvested from a patient having a VIPR2 copy number variation, for example (but not by way of limitation) pluripotent stem cells prepared from such a patient and then transfected with a CAMYEL construct.
Numerous cellular assays were developed that were able to detect VIP responses absent of interference from non-specific vasopressin receptors using this CHO based system. VIPR2 is a Gs coupled receptor. Activation of VIPR2 by VIP leads to both an elevation in cAMP signaling and the recruitment of β-arrestin. A variety of combinations can be transiently transfect into these CHO cells for the assessment of cellular responses to VIP. For the BRET readout CHO cell lines expressing an YFP-Epac-RLuc8 (CAMYEL) BRET sensor were used to detect changes in cAMP. This construct includes Epac1, a guanine nucleotide exchange factor activated by direct binding of cAMP, fused to an enhanced YFP and RLuc8 allowing a change in BRET upon cAMP-induced conformational changes. The key for medium to high throughput screening assays is the use of stable cell lines allowing the continuous assaying of multiple compounds with the ability to generate large numbers of cells for rapid use. In these lines VIPR2 was expressed as one of the stable cell lines assays. This was introduced into the CHO-Flp-IN to allow the generation of isogenic stable cell lines expressing high levels of VIPR2 under control of the CMV promoter. This has been introduced into this line together with the CAMYEL construct previously described. This allows for detection of VIPR2-specific responses to cAMP. EYFP fluorescence and RLuc8 luminescence is quantified in the presence of 5 μM light-emitting luciferin, coelenterazine H, using a PHERAstar (BMG) plate reader. BRET is calculated by quantifying the ratio of the light emitted by the acceptor, YFP (λ=525 nm), over the emission from the donor, RLuc8 (λ=485 nm).
3. […]
(Bioluminescence resonance energy transfer reports proximity on the nanometre scale.)

The target in the next test is T3, PAC1 (Homo sapiens, UniProt P41586).
T3 sequence (P41586 21-468): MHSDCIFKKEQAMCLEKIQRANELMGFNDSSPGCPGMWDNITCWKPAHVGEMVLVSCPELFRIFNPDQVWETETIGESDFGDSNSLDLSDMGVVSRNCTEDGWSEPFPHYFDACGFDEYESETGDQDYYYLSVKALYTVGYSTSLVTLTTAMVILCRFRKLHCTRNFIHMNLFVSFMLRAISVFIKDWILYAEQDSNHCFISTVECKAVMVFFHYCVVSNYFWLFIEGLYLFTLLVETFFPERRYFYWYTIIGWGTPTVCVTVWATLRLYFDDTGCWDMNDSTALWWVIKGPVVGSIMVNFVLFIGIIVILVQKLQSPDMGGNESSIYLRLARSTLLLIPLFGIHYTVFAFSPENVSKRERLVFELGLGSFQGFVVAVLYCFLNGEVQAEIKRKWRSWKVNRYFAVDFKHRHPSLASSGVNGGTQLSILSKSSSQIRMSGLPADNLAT
To be noted: Chu et al., 2010; cited from earlier work.

For test [2], the target named is T2, VIPR2. In words: % Activity: inhibition of VIP-induced cAMP elevation and β-arrestin recruitment (Table 2). The class given is cell-based. Further details: expressed in transfected cells; host or cells: HEK293 cells transfected with VIPR2 in pCDNA3.1 (as described). In short, it runs like this: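 cAMP: HEK293 stably expressing hVIPR2, inhibitor plus VIP 30 min, cAMP by HTRF (665/620 nm ratio ×10,000). β-arrestin: HEK293 with β-arrestin2-β-gal-EA, transiently transfected with VIPR2-ProLink; inhibitor 2 h at 37° C, enzyme complementation read by luminescence.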
For orientation: Activated receptors often draw arrestin, which recruitment assays turn into a signal.

Like-named read-outs stand apart in the source and are kept apart here.

As to `O=C(N[C@H]1c2ccccc2C[C@H]1O)[C@H](Cc1ccccc1)C[C@H](O)CNS(=O)(=O)c1ccc([N+](=O)[O-])cc1` [Compound 1], at VPAC1, the “agonist or antagonist activities for VPAC1” value is “no detectable agonist or antagonist activities”. Also, on VIPR2 [1] (FIG. 1C, FIG. 5), the “VIPR2 inhibition in BRET-based assay (in words)” value is “rightward shift”. At PAC1, the “agonist or antagonist activities for PAC1” value was “no detectable agonist or antagonist activities”. With `CCc1ccc(S(=O)(=O)NC[C@@H](O)C[C@@H](Cc2ccccc2)C(=O)N[C@H]2c3ccccc3C[C@H]2O)cc1` [Compound X115], the concentration for half-maximal inhibition (IC50) on VIPR2 [1] (Table 1, read-out: IC50) was found to be 1.13 µM; at VIPR2 [1] (Table 3, read-out: IC50 (from BRET)) it was 45.8 µM. Turning to `CO[C@@H]1Cc2ccccc2[C@@H]1NC(=O)[C@H](Cc1ccccc1)C[C@H](O)CNS(=O)(=O)c1ccc(C(C)=O)cc1` [Compound X124], at VIPR2 [1] (Table 4, read-out: IC50), the concentration for half-maximal inhibition (IC50) amounted to 76.2 µM. As for `CO[C@@H]1Cc2ccccc2[C@@H]1NC(=O)[C@H](Cc1ccccc1)C[C@H](O)CNS(=O)(=O)c1ccc(Cl)cc1` [Compound X126], on VIPR2 [1] (Table 4, read-out: IC50), the IC50 worked out at 13.3 µM. On the same count and under the same terms, then `CO[C@H]1Cc2ccccc2[C@@H]1NC(=O)[C@H](Cc1ccccc1)C[C@H](O)CNS(=O)(=O)c1ccc2c(c1)OCCO2` [Compound X135], with 28.2 µM. On to `O=C(N[C@H]1c2ccccc2C[C@H]1O)[C@H](Cc1ccccc1)C[C@H](O)CNS(=O)(=O)c1ccc([N+](=O)[O-])cc1` [Ref C1, reference compound], for which the “% Activity” value on VIPR2 [2] amounted to 84.52%. Also, the half-maximal inhibitory concentration (IC50) on VIPR2 [1] (Table 1, read-out: IC50) was 1.3 µM.
